Test results reported in PMC8537897, “Design, Synthesis and Biological Evaluation of Aromatase Inhibitors Based on Sulfonates and Sulfonamides of Resveratrol” (Pharmaceuticals, 2021).
Where two headings read alike, the source gives them in different places.

Experiments:
human aromatase = molecular target: T1, human aromatase (Homo sapiens, UniProt P11511); experiment: Aromatase inhibition, fluorimetric assay kit (Aromatase-CYP19A Inhibitor Screening kit, BioVision); format: biochemical
T1 construct: purchased BioVision, Milpitas, CA, USA
T1 sequence (P11511 1-503): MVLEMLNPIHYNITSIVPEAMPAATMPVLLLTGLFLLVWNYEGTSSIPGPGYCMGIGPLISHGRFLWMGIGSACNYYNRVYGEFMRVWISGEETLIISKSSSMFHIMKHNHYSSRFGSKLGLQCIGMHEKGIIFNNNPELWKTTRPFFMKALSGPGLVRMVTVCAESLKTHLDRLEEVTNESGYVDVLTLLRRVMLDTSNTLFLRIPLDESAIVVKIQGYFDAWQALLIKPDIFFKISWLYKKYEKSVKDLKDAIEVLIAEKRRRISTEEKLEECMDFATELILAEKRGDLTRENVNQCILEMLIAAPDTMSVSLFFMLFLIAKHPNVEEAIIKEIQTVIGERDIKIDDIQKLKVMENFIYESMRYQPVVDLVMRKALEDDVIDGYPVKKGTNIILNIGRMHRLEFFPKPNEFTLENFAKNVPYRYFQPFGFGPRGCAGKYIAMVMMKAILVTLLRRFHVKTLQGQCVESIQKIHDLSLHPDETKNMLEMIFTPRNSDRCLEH
Procedure: The activity was measured each minute for 60 min and the value obtained for each compound after 10 min was chosen to calculate the percentage of the aromatase inhibition.
The aromatase inhibitory activity was determined using a commercial fluorimetric assay kit (Aromatase-CYP19A Inhibitor Screening kit, BioVision, Milpitas, CA, USA), as reported elsewhere. The assay utilizes a fluorogenic aromatase substrate that is converted into a highly fluorescent metabolite detected in the visible range (Ex/Em 488/527 nm). […] During the incubation, the Aromatase Substrate/NADP+ mixture was prepared, and the reaction was started by adding 30 µL of this solution to each well (aside from the background control), reaching a final reaction volume of 100 µL/well. The fluorescence emission (527 nm) was measured immediately (within 1 min) by means of a fluorometer equipped with a 488 nm filter (GloMax®-Multi Detection System, Promega, Madison, WI, USA) and afterwards monitored for 60 min. […] The assay was performed in the same experimental conditions used for the initial screening of compounds. Dose–response curves were fitted with GraphPad Prism 5.0 (GraphPad Software, San Diego, CA, USA).

[1] = Chemical stability by RP-nano-LC at 37 °C; format: physicochemical; conditions: 72 h, 100 µg/mL; for Chemical stability, basic conditions: 0.1 mM sodium hydroxide solution pH 9, 37 °C; for Chemical stability, acidic conditions: 10 mM hydrochloric acid buffer pH 2.0, 37 °C
Description: The results were compared with corresponding sulfonamides 2b–c and 2j. […] Advantages including low consumption of mobile and stationary phases and minimal sample volumes make this analytical tool more cost-effective and eco-friendlier with respect to the conventional HPLC. In addition, the reduction in particle diameter and the use of short chromatographic capillary column allow rapid analyses in isocratic elution mode.
Due to the low solubility of some compounds in pure water, the study was performed in an aqueous solution containing ACN/H2O as mobile phase. These conditions led to the chromatographic separation of each compound within 6 min. […] The analyses were performed with a nano-LC apparatus at appropriate intervals for 72 h, maintaining the prepared samples at a temperature of 37 °C.
Detection wavelength was set at 206 nm, and data were collected using ClarityTM Advanced Chromatography Software (Data Apex Ltd., Prague, Czech Republic).
To reduce the flow rate from µ- to nL/min, the HPLC pump delivering MeOH continuously and the injector were connected to a passive split-flow system. For this purpose, both the HPLC pump and injection valve were joined to a stainless-steel T-piece (Vici, Valco, Houston, TX, USA) by means of 500 µm id stainless steel tubes with lengths of 50 and 5 cm, respectively. The third entrance of the T-piece was connected to the MeOH reservoir of the pump through a fused silica capillary (50 µm id × 50 cm), achieving continuous recycling of the organic solvent. To minimize the dead volume and consequently reduce the band broadening effect, the capillary column was directly inserted into the modified injector, which was used for both sample loading and mobile phase reservoir. Samples and mobile phases were introduced into the capillary column through the injection valve by filling the loop with the sample solutions, switching the valve for the appropriate time, and then flushing the loop with the mobile phase. The analysis started immediately after positioning the injector device in the injection mode. […] In the optimized conditions, the flow rate of the column was about 450 nL/min. Nano-LC experiments were performed in uncoated fused silica capillaries (100 μm internal diameter) from Composite Metal Services, Hallow, UK), packed in our laboratory following the slurry packing procedure as described previously. The capillary column was packed with ChromSpher C18, 3 μm particle size (Varian, Palo Alto, CA, USA) for 15 cm.
Chromatographic conditions and standards preparation were as follows: the nano-LC analyses were performed in the capillary column employing as mobile phase a mixture of ACN/H2O ([…]) containing a 10 mM sodium hydrocarbonate buffer, pH 8.5. […]

[2] = test system: MCF7 breast cancer cell line; experiment: Cell metabolic activity / viability (MTT assay) on MCF7; format: cell-based, human; conditions: for IC50: Homo sapiens, MTT, tested 0 to 500 µM;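 for all read-outs here: MTT optical density read-out in human MCF7 cells, normalised to DMSO vehicle-treated cells as 100%, with IC50 derived from fitted concentration–response curves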
Procedure: Human skin fibroblasts (HFF-1, CVCL_3285) and human breast cancer MCF7 (HTB-22™, CVCL_0031) were purchased from ATCC and maintained in Dulbecco’s modified Eagle’s medium (DMEM) high glucose (EuroClone, Milan, Italy) supplemented with 10% of fetal bovine serum (FBS) and 1% of penicillin/streptomycin (Gibco—Thermo Fisher Scientific, MD, USA).
Cell metabolic activity of HFF-1 and MCF7 cells was assessed by MTT (3-(4,5-Dimethylthiazol-2-yl)-2,5-Diphenyltetrazolium Bromide) test (Sigma Aldrich, Milan, Italy). […] After the established exposure times, cells were incubated with MTT (0.5 mg/mL) and the optical density was measured as reported elsewhere [63]. Results were expressed as the percentage of cells in the presence of vehicle (DMSO) set as 100% and each experiment was performed in triplicate (n = 3). Concentration–response curves and IC50 were fitted and calculated with GraphPad Prism 5.0 (GraphPad Software, San Diego, CA, USA).

SMILES | inhibition at 1 µM (human aromatase) | IC50 (human aromatase; tested at concentrations from 0.01 to 100 μM, mean of triplicate determinations) | Chemical stability, basic conditions [1] | Chemical stability, acidic conditions [1] | IC50 ([2]; MCF7, 24 h, 24 h, read-out: MCF7 Cells IC50 24 h) | IC50 ([2]; MCF7, 72 h, 72 h, read-out: MCF7 Cells IC50 72 h) | Viability (% of control) - 24 h ([2]; MCF7, 10 µM, 24 h) | Viability (% of control) - 72 h ([2]; MCF7, 10 µM, 72 h) | Viability (% of control) - 24 h ([2]; MCF7, 25 µM, 24 h) | Viability (% of control) - 72 h ([2]; MCF7, 25 µM, 72 h) | Viability (% of control) - 24 h ([2]; MCF7, 50 µM, 24 h) | Viability (% of control) - 72 h ([2]; MCF7, 50 µM, 72 h) | Viability (% of control) - 24 h ([2]; MCF7, 100 µM, 24 h) | Viability (% of control) - 72 h ([2]; MCF7, 100 µM, 72 h) | Viability (% of control) - 24 h ([2]; MCF7, 250 µM, 24 h) | Viability (% of control) - 72 h ([2]; MCF7, 250 µM, 72 h) | Viability (% of control) - 24 h ([2]; MCF7, 500 µM, 24 h) | Viability (% of control) - 72 h ([2]; MCF7, 500 µM, 72 h)
O=S(=O)(Cc1ccccc1)Oc1ccc(/C=C/c2ccccc2)cc1 [1j, 4-[(E)-2-Phenylvinyl]phenyl phenylmethanesulfonate] | 100% | 2.21 µM | highly degraded because of their precipitation in the basic solution | stable over the entire range of time | > 250 µM | > 250 µM | 85.47 ± 6.41 % of control | 96.53 ± 7.12 % of control | 86.33 ± 14.64 % of control | 95.30 ± 7.88 % of control | 70.06 ± 3.80 % of control | 87.57 ± 5.26 % of control | 74.91 ± 9.24 % of control | 72.67 ± 3.46 % of control | 51.84 ± 3.08 % of control | 69.54 ± 4.11 % of control | 38.88 ± 5.23 % of control | 46.31 ± 4.73 % of control
O=S(=O)(Cc1ccccc1)Nc1ccc(/C=C/c2ccccc2)cc1 [2j, 1-Phenyl-N-{4-[(E)-2-phenylvinyl]phenyl}methanesulfonamide] |  |  | highly degraded because of their precipitation in the basic solution | stable over the entire range of time |  |  |  |  |  |  |  |  |  |  |  |  |  | 
